Tests used:
[1] = target: Receptor tyrosine-protein kinase erbB-4 (Homo sapiens, UniProt Q15303); details: at 10 µM
[2] = target: MAP kinase-activated protein kinase 3 (Homo sapiens) (UniProt Q16644); test: Selectivity interaction (Kinase screening (Nanosyn)) EUB0000604a MAPKAPK3
[3] = target: T1, Mitogen-activated protein kinase kinase kinase 2 (Homo sapiens) (UniProt Q9Y2U5); test: Selectivity interaction (KinomeScan (DiscoverX)) EUB0001049a MAP3K2; details: at 1 µM
T1 sequence (whole entry): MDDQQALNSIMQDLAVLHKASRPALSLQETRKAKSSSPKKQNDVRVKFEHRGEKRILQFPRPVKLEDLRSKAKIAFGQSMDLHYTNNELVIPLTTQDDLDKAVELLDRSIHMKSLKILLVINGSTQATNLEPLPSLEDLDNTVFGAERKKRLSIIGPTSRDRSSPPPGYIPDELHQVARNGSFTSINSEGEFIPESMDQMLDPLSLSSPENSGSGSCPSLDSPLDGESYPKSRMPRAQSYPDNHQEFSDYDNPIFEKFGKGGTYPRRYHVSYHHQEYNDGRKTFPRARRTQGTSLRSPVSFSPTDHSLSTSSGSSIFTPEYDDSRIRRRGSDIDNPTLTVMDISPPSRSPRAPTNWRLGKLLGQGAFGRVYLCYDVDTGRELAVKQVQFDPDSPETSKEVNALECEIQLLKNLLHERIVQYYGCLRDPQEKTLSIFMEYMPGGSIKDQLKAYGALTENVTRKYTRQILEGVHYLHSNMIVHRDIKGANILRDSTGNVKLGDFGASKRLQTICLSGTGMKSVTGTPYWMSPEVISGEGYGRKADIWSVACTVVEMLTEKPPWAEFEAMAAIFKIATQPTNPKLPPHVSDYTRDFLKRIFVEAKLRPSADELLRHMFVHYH

[4] = target: Serine/threonine-protein kinase WNK2 (Homo sapiens) (UniProt Q9Y3S1); test: Selectivity interaction (ActivX KiNativ screen (kinase selectivity in THP-1 cell lysates)) EUB0000639a WNK2; type: subcellular; details: lysate, at 5 µM
[5] = target: Dual specificity protein kinase CLK2 (Homo sapiens, UniProt P49760); test: Selectivity interaction (Kinase panel (Invitrogen)) EUB0000639a CLK2; details: at 200 nM
[6] = target: Histone acetyltransferase p300 (Homo sapiens) (UniProt Q09472); test: Selectivity interaction (Bromodomain panel (DSF asssay)) EUB0000270b EP300
[7] = target: Serine/threonine-protein kinase 24 (Homo sapiens) (UniProt Q9Y6E0); test: Selectivity interaction (Kinase panel (Z-LYTE Assay)) EUB0001632a STK24; details: at 10 µM
[8] = target: Ribosomal protein S6 kinase beta-1 (Homo sapiens, UniProt P23443); test: Selectivity interaction (KinomeScan (DiscoverX)) EUB0000595a RPS6KB1; details: at 10 µM
[9] = tested on: Epidermal growth factor receptor (Homo sapiens), P00533 [UNDEFINED MUTATION]; test: Selectivity interaction (KinomeScan (DiscoverX)) EUB0000229b EGFR; details: at 1 µM
[10] = target: T2, Ephrin type-B receptor 6 (Homo sapiens) (UniProt O15197); test: Selectivity interaction (KinomeScan (DiscoverX)) EUB0000092b EPHB6; details: at 10 µM
T2 sequence (whole entry): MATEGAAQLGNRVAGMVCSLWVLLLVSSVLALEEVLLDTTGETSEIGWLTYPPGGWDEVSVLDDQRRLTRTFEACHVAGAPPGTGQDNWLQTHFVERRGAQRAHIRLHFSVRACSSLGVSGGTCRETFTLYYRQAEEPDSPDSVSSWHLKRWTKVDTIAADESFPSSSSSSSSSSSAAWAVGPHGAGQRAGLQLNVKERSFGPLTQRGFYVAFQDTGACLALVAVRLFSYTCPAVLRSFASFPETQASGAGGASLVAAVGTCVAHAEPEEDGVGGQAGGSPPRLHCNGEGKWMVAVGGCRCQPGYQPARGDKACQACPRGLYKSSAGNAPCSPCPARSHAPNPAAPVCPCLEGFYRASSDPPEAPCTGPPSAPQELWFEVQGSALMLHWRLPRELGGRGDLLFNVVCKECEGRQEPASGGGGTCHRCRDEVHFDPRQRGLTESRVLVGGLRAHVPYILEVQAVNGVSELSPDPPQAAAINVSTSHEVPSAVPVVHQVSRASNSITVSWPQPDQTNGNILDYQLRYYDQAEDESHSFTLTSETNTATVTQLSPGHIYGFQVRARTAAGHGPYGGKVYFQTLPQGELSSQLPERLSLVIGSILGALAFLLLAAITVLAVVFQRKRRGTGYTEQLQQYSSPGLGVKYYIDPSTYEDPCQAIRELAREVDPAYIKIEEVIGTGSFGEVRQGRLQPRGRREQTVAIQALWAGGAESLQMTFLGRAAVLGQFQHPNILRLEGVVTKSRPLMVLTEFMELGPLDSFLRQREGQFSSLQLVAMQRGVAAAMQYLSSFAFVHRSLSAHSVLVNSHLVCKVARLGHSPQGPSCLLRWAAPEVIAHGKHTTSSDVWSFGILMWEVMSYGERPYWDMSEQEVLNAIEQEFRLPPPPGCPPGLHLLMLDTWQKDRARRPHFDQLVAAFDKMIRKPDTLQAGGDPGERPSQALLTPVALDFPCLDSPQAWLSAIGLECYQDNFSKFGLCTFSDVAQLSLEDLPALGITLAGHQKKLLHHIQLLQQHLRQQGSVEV

[11] = tested on: Mast/stem cell growth factor receptor Kit (Homo sapiens), P10721 [L576P]; test: (§1) Selectivity interaction (KinomeScan (DiscoverX)) EUB0000092b KIT; details: at 10 µM
Sequence of Mast/stem cell growth factor receptor Kit (Homo sapiens), P10721 [L576P] (P10721 whole entry L576P): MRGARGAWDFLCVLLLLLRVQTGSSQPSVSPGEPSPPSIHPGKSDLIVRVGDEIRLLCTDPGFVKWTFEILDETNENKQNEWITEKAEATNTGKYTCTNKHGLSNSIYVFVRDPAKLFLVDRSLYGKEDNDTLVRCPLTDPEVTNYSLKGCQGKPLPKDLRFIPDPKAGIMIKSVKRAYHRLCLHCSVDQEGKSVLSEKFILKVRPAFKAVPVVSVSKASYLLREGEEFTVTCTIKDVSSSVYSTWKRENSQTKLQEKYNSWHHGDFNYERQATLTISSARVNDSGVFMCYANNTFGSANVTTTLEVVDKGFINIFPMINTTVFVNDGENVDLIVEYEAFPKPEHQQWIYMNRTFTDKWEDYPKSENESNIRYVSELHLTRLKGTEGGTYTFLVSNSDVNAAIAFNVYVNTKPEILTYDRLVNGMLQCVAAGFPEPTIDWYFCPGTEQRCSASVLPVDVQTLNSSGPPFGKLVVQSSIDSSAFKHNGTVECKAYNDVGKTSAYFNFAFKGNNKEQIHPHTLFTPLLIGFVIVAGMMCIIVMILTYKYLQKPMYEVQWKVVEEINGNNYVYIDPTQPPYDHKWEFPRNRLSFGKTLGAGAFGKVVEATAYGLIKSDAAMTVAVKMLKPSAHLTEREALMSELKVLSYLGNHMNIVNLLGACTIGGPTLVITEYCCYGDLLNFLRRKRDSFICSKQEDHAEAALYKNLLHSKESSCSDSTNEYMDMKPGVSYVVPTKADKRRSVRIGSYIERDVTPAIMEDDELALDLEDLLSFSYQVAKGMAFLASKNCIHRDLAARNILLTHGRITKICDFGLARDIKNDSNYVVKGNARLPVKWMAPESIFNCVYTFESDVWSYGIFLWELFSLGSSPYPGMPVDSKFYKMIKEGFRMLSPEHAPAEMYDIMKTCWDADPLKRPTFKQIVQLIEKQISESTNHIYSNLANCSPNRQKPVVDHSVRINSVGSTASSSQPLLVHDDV

[12] = tested on: Mast/stem cell growth factor receptor Kit (Homo sapiens), P10721 [V559D]; test: as §1; details: at 10 µM
Sequence of Mast/stem cell growth factor receptor Kit (Homo sapiens), P10721 [V559D] (P10721 whole entry V559D): as the sequence (P10721 whole entry L576P) above, with V559D, P576L counted along it

[13] = target: Serine/threonine-protein kinase MRCK alpha (Homo sapiens) (UniProt Q5VT25); test: Selectivity interaction (KinomeScan (DiscoverX)) EUB0000607a CDC42BPA; details: at 10 µM
[14] = target: Histone-lysine N-methyltransferase, H3 lysine-36 specific (Homo sapiens) (UniProt Q96L73); test: Selectivity interaction (Methyltransferase screen (Scintillation proximity assays)) EUB0000255b NSD1
Sequence of Histone-lysine N-methyltransferase, H3 lysine-36 specific (Homo sapiens) (Q96L73 whole entry): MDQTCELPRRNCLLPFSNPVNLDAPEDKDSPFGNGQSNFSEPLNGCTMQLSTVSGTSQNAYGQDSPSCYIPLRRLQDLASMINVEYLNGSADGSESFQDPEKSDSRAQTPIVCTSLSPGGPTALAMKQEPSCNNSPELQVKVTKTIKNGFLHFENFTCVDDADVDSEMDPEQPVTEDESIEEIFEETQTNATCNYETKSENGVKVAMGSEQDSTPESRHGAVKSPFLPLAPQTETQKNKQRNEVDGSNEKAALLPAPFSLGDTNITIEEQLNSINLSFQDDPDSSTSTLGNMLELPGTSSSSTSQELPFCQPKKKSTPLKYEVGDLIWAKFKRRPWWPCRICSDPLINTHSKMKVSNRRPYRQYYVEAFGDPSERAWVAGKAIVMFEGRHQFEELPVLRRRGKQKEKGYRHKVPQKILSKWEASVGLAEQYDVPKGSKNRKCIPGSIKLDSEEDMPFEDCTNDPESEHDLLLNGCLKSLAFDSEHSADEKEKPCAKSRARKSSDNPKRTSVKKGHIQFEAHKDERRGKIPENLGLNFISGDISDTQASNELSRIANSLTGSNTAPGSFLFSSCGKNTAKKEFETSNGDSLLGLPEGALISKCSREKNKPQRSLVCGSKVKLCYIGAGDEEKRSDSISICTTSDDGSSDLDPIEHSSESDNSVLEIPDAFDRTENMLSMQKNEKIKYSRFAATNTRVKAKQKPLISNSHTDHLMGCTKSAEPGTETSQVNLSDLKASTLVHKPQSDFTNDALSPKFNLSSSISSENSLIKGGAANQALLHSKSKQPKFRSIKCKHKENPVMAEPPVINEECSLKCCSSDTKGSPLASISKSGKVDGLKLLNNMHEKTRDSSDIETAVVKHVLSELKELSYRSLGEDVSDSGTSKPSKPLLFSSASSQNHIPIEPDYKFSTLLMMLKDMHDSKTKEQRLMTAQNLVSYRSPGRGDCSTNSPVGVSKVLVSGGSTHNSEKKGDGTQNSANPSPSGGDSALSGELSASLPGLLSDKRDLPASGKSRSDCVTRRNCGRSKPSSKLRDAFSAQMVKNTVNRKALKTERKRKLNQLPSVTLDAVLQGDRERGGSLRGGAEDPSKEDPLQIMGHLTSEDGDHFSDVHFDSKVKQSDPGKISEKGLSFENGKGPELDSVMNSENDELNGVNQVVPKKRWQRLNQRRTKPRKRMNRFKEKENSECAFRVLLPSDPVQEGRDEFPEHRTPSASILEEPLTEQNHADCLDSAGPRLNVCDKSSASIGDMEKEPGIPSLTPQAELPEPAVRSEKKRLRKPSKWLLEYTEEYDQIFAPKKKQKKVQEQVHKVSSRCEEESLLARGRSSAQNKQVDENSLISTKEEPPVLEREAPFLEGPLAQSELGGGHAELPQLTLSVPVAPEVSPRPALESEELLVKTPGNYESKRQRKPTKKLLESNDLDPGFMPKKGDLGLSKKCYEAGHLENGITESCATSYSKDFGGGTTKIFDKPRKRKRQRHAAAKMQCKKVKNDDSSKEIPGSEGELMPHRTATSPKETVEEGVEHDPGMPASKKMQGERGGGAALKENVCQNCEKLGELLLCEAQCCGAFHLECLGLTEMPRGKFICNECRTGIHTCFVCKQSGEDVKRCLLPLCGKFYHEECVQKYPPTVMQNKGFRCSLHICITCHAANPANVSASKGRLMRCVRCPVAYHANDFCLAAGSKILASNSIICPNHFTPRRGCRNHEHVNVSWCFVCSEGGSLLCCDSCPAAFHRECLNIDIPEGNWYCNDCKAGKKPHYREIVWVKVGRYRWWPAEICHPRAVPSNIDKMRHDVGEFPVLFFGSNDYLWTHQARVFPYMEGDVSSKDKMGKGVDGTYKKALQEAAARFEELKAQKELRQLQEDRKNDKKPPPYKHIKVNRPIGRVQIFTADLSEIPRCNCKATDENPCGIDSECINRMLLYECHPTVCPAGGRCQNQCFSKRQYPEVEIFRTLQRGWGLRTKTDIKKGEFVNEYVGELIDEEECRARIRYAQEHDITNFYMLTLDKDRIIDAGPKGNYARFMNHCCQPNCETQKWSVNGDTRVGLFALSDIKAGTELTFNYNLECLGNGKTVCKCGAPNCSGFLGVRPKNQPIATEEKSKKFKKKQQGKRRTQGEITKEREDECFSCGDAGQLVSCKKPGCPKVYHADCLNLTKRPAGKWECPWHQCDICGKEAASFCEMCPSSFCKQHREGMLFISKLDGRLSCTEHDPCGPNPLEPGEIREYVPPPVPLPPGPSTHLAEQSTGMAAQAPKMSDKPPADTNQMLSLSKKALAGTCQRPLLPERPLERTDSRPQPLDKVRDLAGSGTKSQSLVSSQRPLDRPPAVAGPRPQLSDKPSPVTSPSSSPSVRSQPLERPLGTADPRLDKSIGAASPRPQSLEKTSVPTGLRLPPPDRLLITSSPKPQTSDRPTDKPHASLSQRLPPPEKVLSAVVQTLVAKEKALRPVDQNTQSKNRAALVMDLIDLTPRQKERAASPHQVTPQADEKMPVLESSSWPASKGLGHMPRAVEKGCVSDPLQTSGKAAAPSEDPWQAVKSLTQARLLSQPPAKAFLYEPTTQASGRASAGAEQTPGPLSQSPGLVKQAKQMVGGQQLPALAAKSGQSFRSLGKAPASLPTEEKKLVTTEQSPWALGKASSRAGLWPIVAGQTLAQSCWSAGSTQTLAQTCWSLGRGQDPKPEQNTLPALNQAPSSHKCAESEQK

OATP1B1 (SLCO1B1) = OATP1B1 (SLCO1B1) (Homo sapiens, UniProt Q9Y6L6); test: Selectivity interaction (Panel of kinases, GPCRs, ion channels and transporters (enzymatic assay)) EUB0000223bCl SLCO1B1; details: not told

Sequence of Receptor tyrosine-protein kinase erbB-4 (Q15303 whole entry): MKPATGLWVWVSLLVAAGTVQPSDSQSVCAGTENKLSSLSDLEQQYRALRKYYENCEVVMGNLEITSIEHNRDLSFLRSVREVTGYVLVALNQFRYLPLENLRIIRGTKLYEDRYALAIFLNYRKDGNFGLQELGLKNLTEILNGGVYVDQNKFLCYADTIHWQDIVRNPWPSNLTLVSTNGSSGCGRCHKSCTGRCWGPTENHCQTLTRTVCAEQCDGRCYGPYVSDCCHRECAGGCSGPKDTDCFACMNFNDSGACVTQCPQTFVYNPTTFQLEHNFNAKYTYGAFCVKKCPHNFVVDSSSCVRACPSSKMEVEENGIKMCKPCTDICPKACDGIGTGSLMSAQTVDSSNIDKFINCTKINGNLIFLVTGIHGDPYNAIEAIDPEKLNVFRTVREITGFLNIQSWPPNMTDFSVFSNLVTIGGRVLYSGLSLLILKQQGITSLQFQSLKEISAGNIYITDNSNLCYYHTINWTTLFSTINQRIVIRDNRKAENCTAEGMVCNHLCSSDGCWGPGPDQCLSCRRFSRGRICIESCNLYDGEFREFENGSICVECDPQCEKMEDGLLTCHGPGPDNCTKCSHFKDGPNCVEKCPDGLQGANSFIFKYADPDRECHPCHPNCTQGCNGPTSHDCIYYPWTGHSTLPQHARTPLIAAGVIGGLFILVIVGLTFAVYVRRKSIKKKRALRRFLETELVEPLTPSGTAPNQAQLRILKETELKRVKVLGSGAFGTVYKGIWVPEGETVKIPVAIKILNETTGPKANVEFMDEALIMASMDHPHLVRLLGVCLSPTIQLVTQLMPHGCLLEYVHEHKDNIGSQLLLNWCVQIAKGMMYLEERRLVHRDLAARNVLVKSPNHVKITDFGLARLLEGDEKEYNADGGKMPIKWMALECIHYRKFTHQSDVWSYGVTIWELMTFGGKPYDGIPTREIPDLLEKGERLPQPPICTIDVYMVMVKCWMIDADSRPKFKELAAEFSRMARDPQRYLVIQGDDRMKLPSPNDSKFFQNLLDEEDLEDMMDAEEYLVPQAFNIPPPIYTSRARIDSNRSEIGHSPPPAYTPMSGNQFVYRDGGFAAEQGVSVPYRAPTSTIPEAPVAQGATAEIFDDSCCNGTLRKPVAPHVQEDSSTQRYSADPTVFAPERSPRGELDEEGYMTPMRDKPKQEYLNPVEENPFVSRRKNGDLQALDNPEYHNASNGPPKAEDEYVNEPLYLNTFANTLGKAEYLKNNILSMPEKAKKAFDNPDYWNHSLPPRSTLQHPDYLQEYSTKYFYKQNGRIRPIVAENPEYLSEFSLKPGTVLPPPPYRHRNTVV

SMILES: Cc1cc([C@@H](C)Nc2ccccc2C(=O)O)c2nc(N3CCOCC3)cc(=O)n2c1 [AZD-6482]
- % of control [1]: 100%

SMILES: Cc1cnc(Nc2ccc(F)cc2Cl)nc1-c1c[nH]c(C(=O)N[C@H](CO)c2cccc(Cl)c2)c1
- % of inhibition [2]: 5%

SMILES: COc1cc(Nc2nc(C)cc(-c3cnn4nc(OC)ccc34)n2)cc(C(F)(F)F)c1
- % of control [3]: 87%

SMILES: CC[C@@H]1[C@H](F)C(=O)N[C@@H]1COc1nccc2cc(C(N)=O)c(OC)cc12 [ZIMLOVISERTIB]
- % of inhibition [4]: -14.5%
- % of inhibition [5]: 14.8%

SMILES: Cc1cc(CN)cc(C)c1-c1ncn(C)c1-c1cncn1C
- dTM [6]: -1.45 K

SMILES: Cn1cc(-n2cnc3c(NCc4nc5cc(Cl)c(Cl)cc5[nH]4)nc(N4CCOCC4)nc32)cn1
- % of control [7]: 1.16%

SMILES: COCC(=O)NC/C=C/c1ccc2ncnc(Nc3ccc(Oc4ccc(C)nc4)c(C)c3)c2c1 [CP-724714]
- % of control [8]: 65%

SMILES: COc1cc(N(C)c2ccnc3ccc(C(F)(F)F)cc23)cc(OC)c1OC
- % binding [9]: 97%

SMILES: CCC(=O)N1CCN(c2ccc(-n3c(=O)ccc4cnc5ccc(-c6cnc7ccccc7c6)cc5c43)cc2C(F)(F)F)CC1
- % of control [10]: 80%
- % of control [11]: 48%
- % of control [12]: 50%

SMILES: CNC(=O)Nc1ccc(-c2nc(N3CC4CCC(C3)O4)c3cnn(C4CCC5(CC4)OCCO5)c3n2)cc1
- % of control [13]: 100%

SMILES: COCCN1CCC(c2cc(CN(C)C(=O)c3cccc(Oc4ccccc4)c3)ccn2)CC1
- % activity ([14]; at 1 µM): > 95%
- % activity ([14]; at 10 µM): > 90%

SMILES: COc1cc(C(=O)N2CC[C@@H](O)[C@@H](N)C2)cc2nc(-c3cc4ccccc4n3CC3CC3)n(C)c12
- XC50 (OATP1B1 (SLCO1B1)): 7.94 µM

Source: ChEMBL document CHEMBL5465560, “Selectivity Literature for EUbOPEN Chemogenomic Library” (2024)
